Values of other authors in patent publication US20250311721A1, “UREA COMPLEXES OF ACTIVE INGREDIENTS” (priority 2022, published 2025).

## O=C(NCCc1ncc(C(F)(F)F)cc1Cl)c1ccccc1C(F)(F)F [Fluopyram]
DMSO
  solubility in DMSO: > 250 mg/mL
Ethyl acetate
  solubility in ethyl acetate: > 250 mg/mL
